As a reminder, the MIC is the lowest concentration that inhibits growth of the organism.

In brackets after ≈: the same amount, converted by molar mass.

The first experiment has as its system Mycobacterium tuberculosis. Put plainly: Antitubercular activity against Beijing W multidrug resistant Mycobacterium tuberculosis after 14 days by turbidimetric assay. It counts as functional. Conditions: 336 h.
Take `CCCC[C@H](CN(O)C=O)C(=O)N1CCC[C@H]1c1nc2ccccc2[nH]1`: the MIC worked out at 0.03 µg/mL (≈ 0.0837 µM).
Compound `CCCC[C@H](CN(O)C=O)C(=O)N1CCC[C@H]1C(=O)Nc1ccccn1` yielded an MIC of 0.125 µg/mL (≈ 0.345 µM).
Still for that read-out and setting: under `CCCC[C@H](CN(O)C=O)C(=O)N1CCC[C@H]1c1nc2ccccc2o1` stands 0.06 µg/mL (≈ 0.167 µM).

The subject of the next experiment is Mycobacterium tuberculosis. As to the kind of experiment: Antitubercular activity against rifampicin-resistant Mycobacterium tuberculosis after 14 days by turbidimetric assay. Format: functional. Conditions: 336 h.
In turn, `CCCC[C@H](CN(O)C=O)C(=O)N1CCC[C@H]1c1nc2ccccc2[nH]1` showed a minimal inhibitory concentration (MIC) of 0.125 µg/mL (≈ 0.349 µM).
The compound `CCCC[C@H](CN(O)C=O)C(=O)N1CCC[C@H]1C(=O)Nc1ccccn1` yielded an MIC of 0.25 µg/mL (≈ 0.69 µM).
Still for that read-out and setting: under `CCCC[C@H](CN(O)C=O)C(=O)N1CCC[C@H]1c1nc2ccccc2o1` stands 0.6 µg/mL (≈ 1.67 µM).

The test system of the next experiment is Mycobacterium tuberculosis. Put plainly: Antitubercular activity against isoniazid-resistant Mycobacterium tuberculosis after 14 days by turbidimetric assay. Conditions: 336 h. Format: functional.
As to `CCCC[C@H](CN(O)C=O)C(=O)N1CCC[C@H]1c1nc2ccccc2[nH]1`, the lowest concentration to inhibit growth (MIC) was 0.03 µg/mL (≈ 0.0837 µM).
For `CCCC[C@H](CN(O)C=O)C(=O)N1CCC[C@H]1C(=O)Nc1ccccn1`, 0.1 µg/mL (≈ 0.276 µM) was the least that counted as inhibitory (MIC).
Consider `CCCC[C@H](CN(O)C=O)C(=O)N1CCC[C@H]1c1nc2ccccc2o1`, for which it took 0.06 µg/mL (≈ 0.167 µM) to inhibit growth (MIC).

A further experiment has as its system Mycobacterium tuberculosis. As to the kind of experiment: Antitubercular activity against pyrazinamide-resistant Mycobacterium tuberculosis after 14 days by turbidimetric assay. Format: functional. The following applies: 336 h.
`CCCC[C@H](CN(O)C=O)C(=O)N1CCC[C@H]1c1nc2ccccc2[nH]1` showed an MIC of 0.25 µg/mL (≈ 0.697 µM).
Still for that read-out and setting: under `CCCC[C@H](CN(O)C=O)C(=O)N1CCC[C@H]1C(=O)Nc1ccccn1` stands 0.5 µg/mL (≈ 1.38 µM); under `CCCC[C@H](CN(O)C=O)C(=O)N1CCC[C@H]1c1nc2ccccc2o1`, 0.25 µg/mL (≈ 0.696 µM).

The test system of a further experiment is Mycobacterium tuberculosis. As to the kind of experiment: Antitubercular activity against streptomycin-resistant Mycobacterium tuberculosis after 14 days by turbidimetric assay. Format: functional. The following applies: 336 h.
Turning to `CCCC[C@H](CN(O)C=O)C(=O)N1CCC[C@H]1c1nc2ccccc2[nH]1`, 0.2 µg/mL (≈ 0.558 µM) was the least that counted as inhibitory (MIC).
`CCCC[C@H](CN(O)C=O)C(=O)N1CCC[C@H]1C(=O)Nc1ccccn1` yielded an MIC of 0.5 µg/mL (≈ 1.38 µM).
In turn, `CCCC[C@H](CN(O)C=O)C(=O)N1CCC[C@H]1c1nc2ccccc2o1` came in with an MIC of 0.5 µg/mL (≈ 1.39 µM).

Source of the values: ChEMBL document CHEMBL1139242, “Peptide deformylase inhibitors of Mycobacterium tuberculosis: synthesis, structural investigations, and biological results” (Bioorg Med Chem Lett, 2008).
